This experiment concerns the target human, KCNT1 (Homo sapiens (Human), UniProt Q5JUK3). In words: FLIPR Tl/K Flux Assay. It counts as cell-based. Particulars: HEK293 cells stably expressing human KCNT1; Tl+ flux stimulated with EC80 of agonist Loxapine. The gist of the method: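 Inhibition values come from a Hill-equation fit of % inhibition versus log concentration, using normalized fluorescence (Fmax/Fmin) over a 160 s read. The read followed stimulation with Tl+ plus EC80 agonist loxapine after 30 min compound pre-incubation at 25 °C. Cells were KCNT1-expressing HEK293, dye-loaded 1 h in pH 7.4 HEPES/HBSS with 5 mM probenecid.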
Chain of human, KCNT1 (Q5JUK3 whole entry): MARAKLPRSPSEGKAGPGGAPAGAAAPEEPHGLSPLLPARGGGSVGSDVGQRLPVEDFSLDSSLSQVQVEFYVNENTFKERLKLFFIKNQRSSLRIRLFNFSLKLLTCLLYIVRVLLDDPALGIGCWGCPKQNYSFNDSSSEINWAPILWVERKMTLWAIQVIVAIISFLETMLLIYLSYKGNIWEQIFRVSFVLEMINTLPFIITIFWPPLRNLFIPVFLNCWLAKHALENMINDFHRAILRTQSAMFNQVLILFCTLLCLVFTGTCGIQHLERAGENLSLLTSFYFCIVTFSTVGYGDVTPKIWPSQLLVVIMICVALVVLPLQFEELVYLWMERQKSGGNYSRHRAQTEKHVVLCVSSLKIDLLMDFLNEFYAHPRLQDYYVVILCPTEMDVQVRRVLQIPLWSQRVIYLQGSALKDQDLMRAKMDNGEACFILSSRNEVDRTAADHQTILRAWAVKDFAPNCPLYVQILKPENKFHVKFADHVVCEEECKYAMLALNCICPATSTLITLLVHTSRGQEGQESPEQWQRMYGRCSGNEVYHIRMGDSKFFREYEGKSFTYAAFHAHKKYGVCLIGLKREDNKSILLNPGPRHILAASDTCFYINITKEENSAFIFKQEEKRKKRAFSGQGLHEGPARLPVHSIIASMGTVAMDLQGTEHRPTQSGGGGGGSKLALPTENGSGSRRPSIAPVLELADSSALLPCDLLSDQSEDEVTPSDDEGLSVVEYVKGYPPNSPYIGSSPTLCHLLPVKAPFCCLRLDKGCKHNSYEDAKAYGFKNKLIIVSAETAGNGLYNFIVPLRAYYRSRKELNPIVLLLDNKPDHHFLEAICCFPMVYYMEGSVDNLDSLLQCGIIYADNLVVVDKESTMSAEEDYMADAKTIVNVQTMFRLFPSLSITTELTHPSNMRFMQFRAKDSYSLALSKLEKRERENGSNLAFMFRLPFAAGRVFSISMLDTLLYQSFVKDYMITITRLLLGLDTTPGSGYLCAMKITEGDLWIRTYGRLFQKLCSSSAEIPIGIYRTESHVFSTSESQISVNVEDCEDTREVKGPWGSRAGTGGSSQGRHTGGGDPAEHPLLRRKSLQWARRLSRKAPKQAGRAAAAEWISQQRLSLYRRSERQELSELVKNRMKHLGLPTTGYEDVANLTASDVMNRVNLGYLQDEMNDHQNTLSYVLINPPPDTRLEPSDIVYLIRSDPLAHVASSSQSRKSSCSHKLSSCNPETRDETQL
The term IC50 denotes the concentration at which inhibition is half-maximal. A higher IC50 goes with weaker potency. Turning to `CC(C)(O)c1cc(F)cc(C(=O)N[C@H]2CCCn3nc(-c4ccnc(C(F)(F)F)c4)cc32)c1` [Compound I-581a], the IC50 was < 0.25 µM. Regarding `COc1cc(-c2cc3n(n2)CC[C@@H]3NC(=O)c2cccc(C(F)(F)F)c2)ccn1` [Compound I-286a, (S)-N-(2-(2-Methoxypyridin-4-yl)-5,6-dihydro-4H-pyrrolo[1,2-b]pyrazol-4-yl)-3-(trifluoromethyl)benzamide], the IC50 is < 0.25 µM.

With `O=C(N[C@H]1CCCc2nc(-c3cc(C4CC4)ncc3F)oc21)c1cncc(C(F)(F)F)n1` [Compound I-156a], the IC50 was < 0.25 µM. Take `Cc1cc(C(=O)N[C@H]2CCCn3nc(-c4ccnc(C(F)(F)F)c4)cc32)nc(C2CC2)n1` [Compound I-402a]: the IC50 is < 0.25 µM. Turning to `COc1cc(-c2nc3c(o2)[C@@H](NC(=O)c2cccc(OC(F)(F)F)c2)CCC3)c(F)cn1` [Compound I-176a, (S)-N-(2-(5-Fluoro-2-methoxypyridin-4-yl)-4,5,6,7-tetrahydrobenzo[d]oxazol-7-yl)-3-(trifluoromethoxy)benzamide], the half-maximal inhibitory concentration (IC50) is < 0.25 µM. Regarding `Cn1nc(C(F)(F)F)nc1C(=O)N[C@H]1CCn2nc(-c3cc(C(F)(F)F)ncc3Cl)cc21` [Compound I-142a, (S)-N-(2-(5-Chloro-2-(trifluoromethyl)pyridin-4-yl)-5,6-dihydro-4H-pyrrolo[1,2-b]pyrazol-4-yl)-1-methyl-3-(trifluoromethyl)-1H-1,2,4-triazole-5-carboxamide], the IC50 was < 0.25 µM. In the case of `Cn1nc(C(F)(F)F)cc1C(=O)N[C@H]1CCc2cnc(-c3ccnc(C(F)(F)F)c3)cc21` [Compound I-118a], the IC50 was < 0.25 µM. On to `CC1(C)CC(C(=O)N[C@H]2CCn3nc(-c4cc(C(F)(F)F)ncc4F)cc32)C1` [Compound I-523a, (S)-N-(2-(5-Fluoro-2-(trifluoromethyl)pyridin-4-yl)-5,6-dihydro-4H-pyrrolo[1,2-b]pyrazol-4-yl)-3,3-dimethylcyclobutane-1-carboxamide], for which the IC50 is < 0.25 µM. With `O=C(NC1CCc2cnc(-c3ccnc(C(F)(F)F)c3)cc21)c1cc(F)cc(F)c1` (centres unmarked) [Compound I-478], the IC50 is < 0.25 µM. `CC(C)n1nc(C(F)(F)F)cc1C(=O)NC1CCCc2nn(-c3ccnc(C(F)(F)F)c3)cc21` (racemic) [Compound I-8, (rac)-1-Isopropyl-3-(trifluoromethyl)-N-(2-(2-(trifluoromethyl)pyridin-4-yl)-4,5,6,7-tetrahydro-2H-indazol-4-yl)-1H-pyrazole-5-carboxamide]: the IC50 is < 0.25 µM. Take `COc1cc(-c2nc3c(o2)CCC[C@@H]3NC(=O)c2cc(F)cc(C#N)c2)ccn1` [Compound I-275a]: the IC50 is < 0.25 µM. Under `Cn1nc(C(F)(F)F)nc1C(=O)N[C@H]1CCCc2nn(-c3ccnc(C(F)(F)F)c3)cc21` [Compound I-50a] stands < 0.25 µM. For `O=C(N[C@H]1CCn2nc(-c3cc(C(F)(F)F)ncc3F)cc21)c1cccc(C(F)(F)F)c1` [Compound I-139a, (S)-N-(2-(5-Fluoro-2-(trifluoromethyl)pyridin-4-yl)-5,6-dihydro-4H-pyrrolo[1,2-b]pyrazol-4-yl)-3-(trifluoromethyl)benzamide], the IC50 is < 0.25 µM. In the case of `Cn1nc(C(F)(F)F)cc1C(=O)NC1CCCc2nn(-c3ccn4ccnc4c3)cc21` (racemic) [Compound I-34, (rac)-N-(2-(Imidazo[1,2-a]pyridin-7-yl)-4,5,6,7-tetrahydro-2H-indazol-4-yl)-1-methyl-3-(trifluoromethyl)-1H-pyrazole-5-carboxamide], the IC50 was > 1 µM. Under `Cn1nc(C(F)(F)F)cc1C(=O)N[C@H]1CCCc2cnc(-c3ccnc(C(F)(F)F)c3)nc21` [Compound I-452a] stands 0.25 to 0.5 µM. For `O=C(N[C@H]1CCCn2nc(-c3ccnc(C(F)(F)F)c3)cc21)c1nccc(C(F)(F)F)n1` [Compound I-438a], the IC50 was > 1 µM. Under `Cn1nc(C(F)(F)F)cc1C(=O)N[C@@H]1CCCc2cnc(-c3ccnc(C(F)(F)F)c3)nc21` [Compound I-452b] stands > 1 µM; under `O=C(N[C@H]1CCn2nc(-c3ccnc(C(F)(F)F)c3)cc21)c1ccnc(OC(F)(F)F)c1` [Compound I-198a, (S)-2-(Trifluoromethoxy)-N-(2-(2-(trifluoromethyl)pyridin-4-yl)-5,6-dihydro-4H-pyrrolo[1,2-b]pyrazol-4-yl)isonicotinamide], < 0.25 µM. For the molecule `Cn1nc(C(F)(F)F)cc1C(=O)N[C@H]1CCc2ncc(-c3ccnc(C(F)(F)F)c3)cc21` [Compound I-460a], the IC50 is > 1 µM. As to `COc1cncc(C(=O)N[C@H]2CCn3nc(-c4ccnc(C(F)(F)F)c4)cc32)n1` [Compound I-207a, (S)-6-Methoxy-N-(2-(2-(trifluoromethyl)pyridin-4-yl)-5,6-dihydro-4H-pyrrolo[1,2-b]pyrazol-4-yl)pyrazine-2-carboxamide], the IC50 was < 0.25 µM. As to `Cn1nc(C(F)(F)F)cc1C(=O)NC1CCCc2nn(-c3ccn(C)c(=O)c3)cc21` (racemic) [Compound I-40, (rac)-1-Methyl-N-(2-(1-methyl-2-oxo-1,2-dihydropyridin-4-yl)-4,5,6,7-tetrahydro-2H-indazol-4-yl)-3-(trifluoromethyl)-1H-pyrazole-5-carboxamide], the IC50 is > 1 µM.

Consider `Cn1nc(C(F)(F)F)cc1C(=O)N[C@H]1CCCn2nc(-c3cc(C(F)(F)F)cs3)cc21` [Compound I-117a], for which the IC50 was < 0.25 µM.

As to `N#Cc1cccc(C(=O)N[C@H]2CCCn3nc(-c4cc(C(F)(F)F)ncc4F)cc32)c1` [Compound I-302a, (S)-3-Cyano-N-(2-(5-fluoro-2-(trifluoromethyl)pyridin-4-yl)-4,5,6,7-tetrahydropyrazolo[1,5-a]pyridin-4-yl)benzamide], the concentration for half-maximal inhibition (IC50) is < 0.25 µM. Under `Cc1cnc(C2CC2)cc1-c1cc2n(n1)CC[C@@H]2NC(=O)c1nc(C(F)(F)F)nn1C` [Compound I-492a, (S)-N-(2-(2-Cyclopropyl-5-methylpyridin-4-yl)-5,6-dihydro-4H-pyrrolo[1,2-b]pyrazol-4-yl)-1-methyl-3-(trifluoromethyl)-1H-1,2,4-triazole-5-carboxamide] stands < 0.25 µM; under `CCc1cc(C#N)cc(C(=O)N[C@H]2CCn3nc(-c4ccnc(C(F)(F)F)c4)cc32)c1` [Compound I-200a, (S)-3-Cyano-5-ethyl-N-(2-(2-(trifluoromethyl)pyridin-4-yl)-5,6-dihydro-4H-pyrrolo[1,2-b]pyrazol-4-yl)benzamide], < 0.25 µM. As for `Cn1nc(C(F)(F)F)cc1C(=O)N[C@H]1CCCc2nc(-c3cc(C(F)(F)F)ncc3F)oc21` [Compound I-514a, (S)—N-(2-(5-Fluoro-2-(trifluoromethyl)pyridin-4-yl)-4,5,6,7-tetrahydrobenzo[d]oxazol-7-yl)-1-methyl-3-(trifluoromethyl)-1H-pyrazole-5-carboxamide], the IC50 is < 0.25 µM.

On to `COc1cc(C(=O)N[C@H]2CCc3nn(-c4ccnc(C(F)(F)F)c4)cc32)ccn1` [Compound I-332a, (S)-2-Methoxy-N-(2-(2-(trifluoromethyl)pyridin-4-yl)-2,4,5,6-tetrahydrocyclopenta[c]pyrazol-4-yl)isonicotinamide], for which the IC50 is < 0.25 µM.

In turn, `Cc1nc(C(=O)N[C@H]2CCn3nc(-c4ccnc(C5CC5)c4)cc32)n(C)n1` [Compound I-218a, (S)-N-(2-(2-Cyclopropylpyridin-4-yl)-5,6-dihydro-4H-pyrrolo[1,2-b]pyrazol-4-yl)-1,3-dimethyl-1H-1,2,4-triazole-5-carboxamide] showed an IC50 of 0.25 to 0.5 µM.

Regarding `O=C(N[C@H]1CCCc2oc(-c3ccnc(C4CC4)c3)nc21)c1cncc(C(F)(F)F)n1` [Compound I-231a], the IC50 was < 0.25 µM. On to `O=C(N[C@H]1CCCc2nc(-c3cc(C4CC4)ncc3F)oc21)c1cc(Cl)cc(Cl)c1` [Compound I-157a, (S)-3,5-Dichloro-N-(2-(2-cyclopropyl-5-fluoropyridin-4-yl)-4,5,6,7-tetrahydrobenzo[d]oxazol-7-yl)benzamide], for which the IC50 was < 0.25 µM. Turning to `COc1cc(-c2cc3n(n2)CCC[C@@H]3NC(=O)c2cccc(C(F)(F)F)c2)ccn1` [Compound I-355a], the IC50 is < 0.25 µM. Under `CCOc1cc(-n2cc3c(n2)CCCC[C@@H]3NC(=O)c2cccc(C)c2)ccn1` [Compound I-361a] stands < 0.25 µM; under `Cc1cccc(C(=O)N[C@H]2CCc3nn(-c4ccnc(C(F)(F)F)c4)cc32)c1` [Compound I-97a], < 0.25 µM; under `Cc1cc(-c2cc3n(n2)CCC[C@@H]3NC(=O)c2cc(C(F)(F)F)nn2C)cc(C2CC2)n1` [Compound I-315a, (S)-N-(2-(2-Cyclopropyl-6-methylpyridin-4-yl)-4,5,6,7-tetrahydropyrazolo[1,5-a]pyridin-4-yl)-1-methyl-3-(trifluoromethyl)-1H-pyrazole-5-carboxamide], < 0.25 µM. Under `CCc1cc(-c2cc3n(n2)CCC[C@@H]3NC(=O)c2cc(C(F)(F)F)nn2C)ccn1` [Compound I-390a] stands < 0.25 µM. Take `O=C(N[C@H]1CCCc2oc(-c3ccnc(C4CC4)c3)nc21)c1cccc(C(F)(F)F)c1` [Compound I-238a, (S)-N-(2-(2-Cyclopropylpyridin-4-yl)-4,5,6,7-tetrahydrobenzo[d]oxazol-4-yl)-3-(trifluoromethyl)benzamide]: the IC50 is < 0.25 µM. `CCc1[nH]nc(C(=O)N[C@H]2CCCn3nc(-c4ccnc(C(F)(F)F)c4)cc32)c1F` [Compound I-439a]: the IC50 was < 0.25 µM. As to `CC(F)(F)c1cc(-c2cc3n(n2)CCC[C@@H]3NC(=O)c2ccnc(C(F)(F)F)c2)ccn1` [Compound I-500a, (S)-N-(2-(2-(1,1-Difluoroethyl)pyridin-4-yl)-4,5,6,7-tetrahydropyrazolo[1,5-a]pyridin-4-yl)-2-(trifluoromethyl)isonicotinamide], the IC50 was < 0.25 µM.

(Values after patent publication US20250313548A1 (Actio Biosciences, Inc., priority 2023, published 2025).)
